According to patent publication US10363261B2, “Enolase inhibitors and methods of treatment therewith” (Board of Regents, The University of Texas System, priority 2015, dated 2019):

Legend:
[1] = tested on: Gli56 ENO1-deleted glioma cells; assay: Cell proliferation by Incucyte, ten days; assay type: cell-based, human
Description: Cell proliferation of glioma cell lines was assayed either through crystal violet staining or by live-cell confluence measurements with the IncuCyte (Essen BioScience). Growth curves using the IncuCyte were generated by confluence imaging every 4 hours with duplicate replicates with an initial seeding of 1500 cells/well in 96-well plates. At the indicated time point, cells were fixed with 10% formalin and stained with crystal violet. Dye extraction was performed using 10% acetic acid solution, and absorbance was read at 595 nm. Apoptotic cells were counted by staining with YO-PRO®-1 Iodide (491/509, Life Technologies, Y3603). Apoptotic cells become permeable to YO-PRO®-1 while live cells are not stained. Alternatively, Propidium Iodide was employed (Life Technologies) instead of YO-PRO. Total cell number was quantified by Hoechst 33342 (Cat# H3570 Invitrogen). Cells were seeded as 2×10^3 cells/well in 96-well plates and treated in the presence or absence of doxycycline. […] Image capture and quantification was done by High Content Screening System—Operetta (Perkin Elmer). ATP content was measured with the luciferase/luciferin CellTiter-Glo® assay. […] Lysis was achieved by the […] in the buffer and vigorous pipetting, and luminescence was determined using an Omega Luminescence Plate Reader (BMG Labtech). […]

enolase (ENO1 and ENO2) = assay: Enolase inhibitory activity in vitro, isoform not distinguished (ENO1 and ENO2); assay type: biochemical, human; details: isolated enzymatic assay
Description: Human ENO1 and ENO2 were overexpressed in the human D423 cell line and used for enzymatic assays. Inhibitors (PhAH, SF2312 and Deoxy-SF2312, Hex, Hepta, Pom-Hex, and Fosmidomycin) were incubated with the enzyme prior to addition of 5 mM 2-PG substrate. Enzymatic activity was measured by monitoring fluorescence of NADH at 340 nm Exitation/460 nm emission using an Lactate dehydrogenase/Pyruvate kinase linked assay which links the formation of PEP to the oxidation of NADH to NAD+, as we have described in published work (Muller et al., 2012). Enzymatic activity was normalized to that in the absence of the inhibitor (set to 1) and plotted as function of inhibitor concentration.
Enolase activity was measured using two different methods, either by a fluorometric NADH-linked assay or a direct spectrophotometric assay via formation of PEP. In the fluorescent assay, enolase activity was measured via NADH oxidation in a pyruvate kinase-lactate dehydrogenase coupled assay as previously described (Muller, et al., 2012). The assay is conducted in 10 mM KCl, 5 mM MgSO4, 100 mM triethanolamine at pH 7.4, with 400 μM NADH and 2 mM ADP. 2-Phosphoglycerate (2-PGA), pyruvate kinase (PK) and lactate dehydrogenase (LDH) are provided in excess, with conversion of 2-PGA to PEP by enolase being rate limiting. PEP (with ADP) is substrate of PK; pyruvate formed by this reaction is linked to NADH oxidation by LDH. Enolase activity is determined by measuring oxidation of NADH fluorescently by excitation at 340 nm and emission at 460 nm. The substrate concentration, if not otherwise indicated, was 5 mM 2-PGA. Fluorescence was measured using Omega Fluorescence Plate Reader (BMG Labtech). Alternatively, Enolase activity was measured directly by the appearance of PEP from 2-PGA via absorption at 240 nm (Marangos, et al., 1978). The assay medium was the same, except that all the auxiliary reagents (PK/LDH, NADH, ADP) are omitted. Both assays were conducted in a 96-well plated format with the direct assay performed in UV-transmissible plates.

ENO2 = ENO2 (Homo sapiens, UniProt P09104); assay: Thermal shift assay on recombinant human ENO2 expressed in E. coli; assay type: binding; set-up: DNA encoding full length Human Enolase 2 was cloned into pJL-H6 plasmid expression vector; His tag (pJL-H6) (C); made in house; host or cells: E. coli BL21 (DE3); details: 10 μM inhibitor
Description: Thermal shift assays were conducted as described in Martinez Molina, et al. (2013), on lysates of D423 cell line overexpressing ENO1 and ENO2, on recombinant human ENO1 and ENO2 purified from E. coli as well as intact D423 ENO2 overexpressing glioma cells. […] Lysates were diluted (1:100) in Enolase enzymatic activity buffer as mentioned above. Diluted lysates were treated with SF2312, PhAH or vehicle and heated on a C1000 Thermal cycler (Bio-rad) with a linear temperature gradient (50 to 82.5° C. in 2.5° C. increments) for 3 minutes (FIG. 24). The lysates were then centrifuged at 20,000 g for 10 minutes. Supernatant and pellet were then separated and NuPage LDS Sample buffer (Life Technologies # NP0007) was added. Western Blots were performed as described previously (Muller, et al., 2012). The following antibodies were used: ENO1 (Abcam # ab155102), ENO2 (Dako # M087301-2), Vinculin (EMD Millipore #05-386), pan-ENO (Santa Cruz Biotechnology, sc-7455) and TPI (Proteintech #10713-1-AP). Recombinant human ENO2: The same procedure was carried out on purified recombinant ENO2 from E. coli, utilizing the purified protein generated for the X-ray crystallography studies. […]

D423 overexpressing ENO2 = assay: Sensitivity of D423 cells with re-expression of ENO2; assay type: cell-based, human
Description: Total cell number was quantified by Hoechst 33342 (Cat# H3570; Invitrogen). Apoptotic cells were counted by staining with propidium iodide. Apoptotic cells become permeable to propidium iodide while live cells are not stained. On the day of apoptosis survey, old media was removed and each well was filled to 100 μl with fresh media. Hoechst and propidium iodide were mixed in 1:100 PBS and 10 μl of the mixture was added in each well gently without touching the cells for a final dilution of 1:1000 from stock. Plates were then incubated at 37° C. for 2 hours. Image capture and quantification was done by High Content Screening System—Operetta (Perkin Elmer).
Cell proliferation of glioma cell lines was assayed either through crystal violet staining or by live-cell confluence measurements with the IncuCyte (Essen BioScience). […] Dye extraction was performed using 10% acetic acid solution, and absorbance was read at 595 nm. Apoptotic cells were counted by staining with YO-PRO®-1 Iodide (491/509, Life Technologies, Y3603). […] Total cell number was quantified by Hoechst 33342 (Cat# H3570 Invitrogen). […] Image capture and quantification was done by High Content Screening System—Operetta (Perkin Elmer). ATP content was measured with the luciferase/luciferin CellTiter-Glo® assay. […]

ENO2, sequence (P09104 whole entry): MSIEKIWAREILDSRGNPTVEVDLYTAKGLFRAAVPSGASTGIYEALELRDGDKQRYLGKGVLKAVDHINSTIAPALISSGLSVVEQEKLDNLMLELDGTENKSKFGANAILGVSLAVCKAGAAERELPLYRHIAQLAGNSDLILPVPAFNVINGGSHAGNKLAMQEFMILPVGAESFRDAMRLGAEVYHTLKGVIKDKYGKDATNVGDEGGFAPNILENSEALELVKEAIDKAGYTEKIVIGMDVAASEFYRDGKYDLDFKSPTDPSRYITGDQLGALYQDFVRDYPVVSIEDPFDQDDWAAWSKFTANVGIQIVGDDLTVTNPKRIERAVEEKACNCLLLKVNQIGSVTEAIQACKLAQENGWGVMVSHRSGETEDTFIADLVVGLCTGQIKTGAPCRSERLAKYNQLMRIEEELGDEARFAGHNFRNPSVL

In the case of `O=C1C(P(=O)(O)O)CC(O)N1O` (racemic) [SF2312, 3-dihydroxyphosphoryl-1,5-dihydroxy-2-pyrrolidone], the “fold more potent at inhibiting proliferation of Gli56 ENO1-deleted cells compared to ENO1-intact glioma lines” value [1] is reported as no more than 128 fold, the “IC50 lower than that of PhAH” value (enolase (ENO1 and ENO2)) is reported as “about 50%” and the “thermal stabilization of recombinant ENO2” value (ENO2) is reported as roughly 15 °C. For the same molecule, the “residual sensitivity to SF2312 relative to that of PhAH after re-expression of ENO2” value (D423 overexpressing ENO2) was “at least 4 times”.
